Converted amounts (≈) assume the structure as drawn. The source made the active and inactive calls. The rule behind the calls is not given here.
Legend:
[1] = test system: Pseudomonas aeruginosa; test: Antibacterial activity against Pseudomonas aeruginosa assessed as diameter of growth inhibition zone after 24 hrs by two fold serial dilution method; assay type: functional
[2] = test system: HCT-116; test: Anticancer activity against human HCT116 cells assessed as cell viability after 72 hrs by MTT assay; assay type: functional, cell-based
[3] = test system: A549; test: Anticancer activity against human A549 cells assessed as cell viability after 72 hrs by MTT assay; assay type: functional, cell-based
[4] = test system: DU-145; test: Anticancer activity against human DU145 cells assessed as cell viability after 72 hrs by MTT assay; assay type: functional, cell-based
[5] = test system: Escherichia coli; test: Antibacterial activity against Escherichia coli assessed as growth inhibition after 24 hrs by two fold serial dilution method relative to ampicillin; assay type: functional; parameters: scale not given: the % may be the effect or the level left
[6] = test system: SK-OV-3; test: Anticancer activity against human SKOV3 cells assessed as cell viability after 72 hrs by MTT assay; assay type: functional, cell-based
[7] = test system: HT-29; test: Anticancer activity against human HT-29 cells assessed as cell viability after 72 hrs by MTT assay; assay type: functional, cell-based
[8] = test system: Escherichia coli; test: Antibacterial activity against Escherichia coli assessed as diameter of growth inhibition zone after 24 hrs by two fold serial dilution method; assay type: functional
[9] = test system: Enterococcus; test: Antibacterial activity against Enterococcus assessed as growth inhibition after 24 hrs by two fold serial dilution method; assay type: functional
[10] = test system: Enterococcus; test: Antibacterial activity against Enterococcus assessed as growth inhibition after 24 hrs by two fold serial dilution method relative to ampicillin; assay type: functional; parameters: scale not given: the % may be the effect or the level left
[11] = test system: HCT-116; test: Anticancer activity against human HCT116 cells assessed as cell viability at 50 uM after 48 hrs by MTT assay; assay type: functional; conditions: HCT-116, 48 h, read-out: Activity
[12] = test system: Pseudomonas aeruginosa; test: Antibacterial activity against Pseudomonas aeruginosa assessed as growth inhibition after 24 hrs by two fold serial dilution method; assay type: functional
[13] = test system: Klebsiella pneumoniae; test: Antibacterial activity against Klebsiella pneumoniae assessed as growth inhibition after 24 hrs by two fold serial dilution method; assay type: functional
[14] = test system: Staphylococcus aureus; test: Antibacterial activity against Staphylococcus aureus assessed as diameter of growth inhibition zone after 24 hrs by two fold serial dilution method; assay type: functional
[15] = test system: Pseudomonas aeruginosa; test: Antibacterial activity against Pseudomonas aeruginosa assessed as growth inhibition after 24 hrs by two fold serial dilution method relative to ampicillin; assay type: functional; parameters: scale not given: the % may be the effect or the level left
[16] = Induction of DNA degradation in supercoiled plasmid DNA (unknown origin) by agarose gel electrophoresis in absence of UV light
[17] = test system: Klebsiella pneumoniae; test: Antibacterial activity against Klebsiella pneumoniae assessed as diameter of growth inhibition zone after 24 hrs by two fold serial dilution method; assay type: functional
[18] = test system: Escherichia coli; test: Antibacterial activity against Escherichia coli assessed as growth inhibition after 24 hrs by two fold serial dilution method; assay type: functional
[19] = Induction of DNA degradation in open circular plasmid DNA (unknown origin) by agarose gel electrophoresis in absence of UV light
[20] = test system: Staphylococcus aureus; test: Antibacterial activity against Staphylococcus aureus assessed as growth inhibition after 24 hrs by two fold serial dilution method relative to ampicillin; assay type: functional; parameters: scale not given: the % may be the effect or the level left
[21] = test system: HCT-116; test: Anticancer activity against human HCT116 cells assessed as cell viability at 25 uM after 48 hrs by MTT assay; assay type: functional; conditions: HCT-116, 48 h, read-out: Activity
[22] = test system: HCT-116; test: Anticancer activity against human HCT116 cells assessed as cell viability at 10 uM after 48 hrs by MTT assay; assay type: functional; conditions: HCT-116, 48 h, read-out: Activity
[23] = test system: Enterococcus; test: Antibacterial activity against Enterococcus assessed as diameter of growth inhibition zone after 24 hrs by two fold serial dilution method; assay type: functional
[24] = test system: Staphylococcus aureus; test: Antibacterial activity against Staphylococcus aureus assessed as growth inhibition after 24 hrs by two fold serial dilution method; assay type: functional
[25] = Induction of DNA photocleavage in supercoiled plasmid DNA (unknown origin) at 2.5 ug by agarose gel electrophoresis in presence of UV light
[26] = Induction of DNA photocleavage in open circular plasmid DNA (unknown origin) at 30 ug by agarose gel electrophoresis in presence of UV light
[27] = Induction of DNA photocleavage in supercoiled plasmid DNA (unknown origin) at 15 ug by agarose gel electrophoresis in presence of UV light
[28] = Induction of DNA photocleavage in open circular plasmid DNA (unknown origin) at 60 ug by agarose gel electrophoresis in presence of UV light
[29] = Induction of DNA photocleavage in open circular plasmid DNA (unknown origin) at 1 ug by agarose gel electrophoresis in presence of UV light
[30] = Induction of DNA photocleavage in supercoiled plasmid DNA (unknown origin) at 1 ug by agarose gel electrophoresis in presence of UV light
[31] = Induction of DNA photocleavage in open circular plasmid DNA (unknown origin) at 5 ug by agarose gel electrophoresis in presence of UV light
[32] = Induction of DNA photocleavage in open circular plasmid DNA (unknown origin) at 15 ug by agarose gel electrophoresis in presence of UV light
[33] = Induction of DNA photocleavage in supercoiled plasmid DNA (unknown origin) at 30 ug by agarose gel electrophoresis in presence of UV light
[34] = test system: DU-145; test: Anticancer activity against human DU145 cells assessed as cell viability at 50 uM after 72 hrs by MTT assay; assay type: functional, cell-based
[35] = Induction of DNA photocleavage in supercoiled plasmid DNA (unknown origin) at 60 ug by agarose gel electrophoresis in presence of UV light
[36] = Induction of DNA photocleavage in supercoiled plasmid DNA (unknown origin) at 5 ug by agarose gel electrophoresis in presence of UV light
[37] = test system: HT-29; test: Anticancer activity against human HT-29 cells assessed as cell viability at 50 uM after 72 hrs by MTT assay; assay type: functional, cell-based
[38] = Induction of DNA photocleavage in open circular plasmid DNA (unknown origin) at 2.5 ug by agarose gel electrophoresis in presence of UV light

Row | SMILES | Activity [6] | diameter of the inhibition zone (DIZ) [8] [mm] | MIC [9] [µg/mL] | viability at 50 µM [11] [%] | diameter of the inhibition zone (DIZ) [14] [mm] | Activity [16] | MIC [18] [µg/mL] | Activity [19] | Activity [20] [%] | viability at 25 µM [21] [%] | viability at 10 µM [22] [%] | diameter of the inhibition zone (DIZ) [23] [mm] | MIC [24] [µg/mL] | other results
1 | Cc1cc(C)n(CC(=O)c2ccc3ccccc3c2)n1 | inactive | 12 | 16 (≈ 60.5 µM) | 36.5 | 10 | inactive | 16 (≈ 60.5 µM) | inactive | 25 | 52.6 | 56.8 | 15 | 8 (≈ 30.3 µM) | diameter of the inhibition zone (DIZ) [1]: 14 mm; Activity [2]: Active; Activity [3]: Active; Activity [4]: Active; Activity [5]: 50%; Activity [7]: Active; Activity [10]: 12.5%; MIC [12]: 64 µg/mL (≈ 242 µM); MIC [13]: 64 µg/mL (≈ 242 µM); Activity [15]: 12.5%; diameter of the inhibition zone (DIZ) [17]: 11 mm
2 | Cc1cc(C)n(CC(=O)c2ccc(Br)cc2)n1 | inactive | 14 | 512 (≈ 1750 µM) | 47.4 | 14 | inactive | 256 (≈ 873 µM) | inactive | 6.25 | 55.9 | 62.4 | 12 | 32 (≈ 109 µM) | Activity [25]: Active; Activity [26]: Active; Activity [27]: Active; Activity [28]: Active; Activity [29]: Active; Activity [30]: Active; Activity [31]: Active; Activity [32]: Active; Activity [33]: Active; Activity [34]: inactive; Activity [35]: Active; Activity [36]: Active; Activity [37]: inactive; Activity [38]: Active
